Results on one compound are retold here after article PMC8971402, “Author Correction: Effects of route of administration on oxytocin-induced changes in regional cerebral blood flow in humans” (Nature Communications, 2022).

Where “and” joins values, the source holds several entries; their conditions need not be identical. Equal entries are not always repeated.

A word on the Cmax: it is the peak of the concentration-time curve.

Data set [1] relates to heart rate and heart rate variability. On the set-up: species or system humans. The note with it: in vivo, iv. How it is done:
Supplementary Table 4 – Percentage of observations satisfying quality control criteria for
the pulse plethysmography analysis. Following current recommendations for heart rate data
processing and analysis, if more than 5% of the beats required correction, then we decided to
exclude these periods of observation. In some rare cases where artefacts could not be corrected,
we only included the data if at least 5 min of acquisition free of artefacts could be analysed. In
this table, we present the percentage of total data available satisfying our quality control criteria
for each treatment method of administration and time-interval, so the reader can appreciate the
amount of data effectively used in the final analysis.
Time from last drug administration offset (minutes)
We determined time-interval, treatment, and treatment
x time-interval effects on a set of time domain (heart-rate (HR) and the root mean square of the successive differences (RMSSD), frequency domain
(low (LF) and high (HF) frequencies spectral powers and high/low frequency spectral power ratio (HF/LF)) and non-linear (Approximate entropy
(ApEn), the SD1 and SD2 lines from the Poincare Plot and the detrended fluctuation scaling exponents DFAα1 and DFAα2) analysis measures of
heart rate variability. We used a repeated measures two-way analysis of variance, using subjects, treatment and time as factors, and the Greenhouse- […]

For data set [2] the following is noted: in vivo.
Text: We present a summary of three
(§1) parameters describing the pharmacokinetics of each treatment administration method. We
(§2) present the maximum plasmatic concentration achieved after dosing (Cmax), the area under the
(§3) curve (AUC) reflecting the magnitude of the variations of plasmatic oxytocin post-dosing and
(§4) the absolute bioavailability of oxytocin absorbed to the plasma, calculated as the dose-corrected
(§5) AUC of each intranasal administration divided by the dose-corrected AUC of the intravenous
(§6) administration. Data are presented as mean (1 standard error of the mean).
The nature of data set [3]: Pharmacokinetics of plasmatic oxytocin after intravenous, nasal spray or nebulizer administration. The note with it: for Concentration (plasma oxytocin): Condition IV, individual participants (Fig6A source data); for Bioavailability: individual participants, corrected source data (Fig6C).
Text: We present a summary of three
as §1, §2, §3, §4, §5, §6

On to `CC[C@H](C)[C@@H]1NC(=O)[C@H](Cc2ccc(O)cc2)NC(=O)[C@@H](N)CSSC[C@@H](C(=O)N2CCC[C@H]2C(=O)N[C@@H](CC(C)C)C(=O)NCC(N)=O)NC(=O)[C@H](CC(N)=O)NC(=O)[C@H](CCC(N)=O)NC1=O` [oxytocin], for which the “Effect on heart rate and heart rate variability” value in data set [1] is reported as “did not affect heart rate or heart rate variability”. Also, in data set [2], the “AUC over the observation interval, intravenous OT infusion vs intranasal methods” value is “significantly higher AUC”. Further, the “Concentration (plasma oxytocin)” value is 65.12 and 59.67 and 47.11 in data set [3] (Sample 2, in pg/mL); 0.0681 ng/mL in data set [3] (Sample 3); 0.0539 ng/mL in data set [3] (Sample 4); 30.93 in data set [3] (Sample 4, in pg/mL); 12.86 and 20.71 in data set [3] (Sample 6, in pg/mL); 0.00723 ng/mL and 0.00461 ng/mL in data set [3] (Sample 7). Besides, the Concentration (plasma oxytocin) in data set [3] (Sample 8) is 0.00377 ng/mL. Further, the Bioavailability in data set [3] (Nebuliser) was 31.90% and 10.30% and 3.30% and 7.94% and 12.67% and 62.94% and 5.39% and 6.53% and 8.236% and 4.17% and 6.07% and 5.20% and 6.82% and 10.22% and 6.95% and 32.80%; in data set [3] (Spray) it was 6.85% and 11.96% and 5.38% and 16.81% and 5.32% and 6.16% and 8.93% and 4.67% and 8.4323% and 12.50% and 14.77% and 6.29% and 7.56% and 11.34% and 5.36% and 37.05%. In addition, the “Absolute bioavailability of OT absorbed to the plasma, standard nasal spray vs PARI SINUS nebulizer” value in data set [3] (corrected AUCs, paired t-test p = 0.438) was “no significant differences”. Besides, the Cmax in data set [3] (human, in vivo, iv, SEM) was found to be 0.0643 ng/mL.
